Test results from PubChem BioAssay (NCI).
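Cells were grown in 96-well plates and exposed to each compound for 48 hours at five concentrations; endpoints were interpolated linearly between bracketing concentrations, or set to the highest concentration if not reached. GI50 = concentration required for 50% inhibition of growth. The concentration for full growth arrest is given as TGI.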

Key:
Assay in all cases: inhibition of tumour cell growth, NCI panel, 48 h
[1] = test system: CCRF-CEM leukemia
[2] = test system: SW-620 colon
[3] = test system: DU-145 prostate
[4] = test system: A549 NSCLC
[5] = test system: TK-10 renal
[6] = test system: COLO 205 colon
[7] = test system: K-562 leukemia
[8] = test system: M14 melanoma
[9] = test system: HCC-2998 colon
[10] = test system: ACHN renal
[11] = test system: EKVX NSCLC
[12] = test system: NCI-H522 lung
[13] = test system: SK-MEL-2 melanoma
[14] = test system: SNB-19 CNS
[15] = test system: MDA-MB-231 breast
[16] = test system: UACC-62 melanoma
[17] = test system: OVCAR-5 ovarian
[18] = test system: A498 renal
[19] = test system: NCI-H460 lung
[20] = test system: SK-MEL-28 melanoma
[21] = test system: MOLT-4 leukemia
[22] = test system: MDA-MB-468 breast
[23] = test system: SF-268 CNS
[24] = test system: HL-60(TB) leukemia
[25] = test system: SR leukemia
[26] = test system: SK-OV-3 ovarian
[27] = test system: HS 578T breast
[28] = test system: LOX IMVI melanoma
[29] = test system: MCF7 breast
[30] = test system: HOP-62 NSCLC
[31] = test system: HCT-116 colon
[32] = test system: CAKI-1 renal
[33] = test system: NCI-H226 lung
[34] = test system: OVCAR-8 ovarian
[35] = test system: SN12C renal
[36] = test system: PC-3 prostate
[37] = test system: NCI-H23 lung
[38] = test system: IGROV1 ovarian
[39] = test system: SF-295 CNS
[40] = test system: OVCAR-4 ovarian
[41] = test system: HCT-15 colon
[42] = test system: MDA-MB-435
[43] = test system: SK-MEL-5 melanoma
[44] = test system: UO-31 renal
[45] = test system: NCI/ADR-RES ovarian
[46] = test system: OVCAR-3 ovarian
[47] = test system: KM12 colon
[48] = test system: RPMI-8226 leukemia
[49] = test system: BT-549 breast
[50] = test system: T-47D breast
[51] = test system: 786-0 renal
[52] = test system: U251 CNS
[53] = test system: HOP-92 NSCLC
[54] = test system: HT29 colon
[55] = test system: UACC-257 melanoma
[56] = test system: SF-539 CNS
[57] = test system: MALME-3M melanoma
[58] = test system: SNB-75 CNS

Work on `COCCOCCOCCOc1ccc(-n2cc(CCCN(CCNc3ccnc4cc(Cl)ccc34)C(=O)CCC(=O)O[C@@H]3O[C@@H]4OC5(C)CC[C@H]6[C@H](C)CC[C@@H]([C@H]3C)[C@@]46OO5)nn2)cc1` yielded a GI50 [1] of 1.07 µM, a TGI [1] of over 10.3 µM and a GI50 [2] of 0.654 µM. The TGI [2] was over 10.3 µM, the GI50 [3] was over 10.3 µM and the TGI [3] was over 10.3 µM. It also gave a GI50 [4] of 6.09 µM, a TGI [4] of over 10.3 µM and a GI50 [5] of over 10.3 µM. The TGI [5] was over 10.3 µM, the GI50 [6] was 1.12 µM and the TGI [6] was over 10.3 µM. It also gave a GI50 [7] of 0.434 µM, a TGI [7] of over 10.3 µM and a GI50 [8] of 3.19 µM. The TGI [8] was over 10.3 µM, the GI50 [9] was 7.16 µM and the TGI [9] was over 10.3 µM. It also gave a GI50 [10] of 3.97 µM, a TGI [10] of over 10.3 µM and a GI50 [11] of 1.67 µM. The TGI [11] was over 10.3 µM, the GI50 [12] was 0.754 µM and the TGI [12] was over 10.3 µM. It also gave a GI50 [13] of 5.76 µM, a TGI [13] of over 10.3 µM and a GI50 [14] of over 10.3 µM. The TGI [14] was over 10.3 µM, the GI50 [15] was over 10.3 µM and the TGI [15] was over 10.3 µM. For the same compound, the GI50 [16] was 1.18 µM, the TGI [16] was over 10.3 µM and the GI50 [17] was 1.7 µM. It also gave a TGI [17] of over 10.3 µM, a GI50 [18] of over 10.3 µM and a TGI [18] of over 10.3 µM. The GI50 [19] was 10.1 µM, the TGI [19] was over 10.3 µM and the GI50 [20] was 4.01 µM. The TGI [20] was over 10.3 µM, the GI50 [21] was 0.408 µM and the TGI [21] was over 10.3 µM. For the same compound, the GI50 [22] was 1.01 µM, the TGI [22] was over 10.3 µM and the GI50 [23] was 7.69 µM. The TGI [23] was over 10.3 µM, the GI50 [24] was 0.353 µM and the TGI [24] was 2.37 µM. It also gave a GI50 [25] of 0.375 µM, a TGI [25] of 3.34 µM and a GI50 [26] of over 10.3 µM. The TGI [26] was over 10.3 µM, the GI50 [27] was 2.54 µM and the TGI [27] was over 10.3 µM. It also gave a GI50 [28] of 0.731 µM, a TGI [28] of over 10.3 µM and a GI50 [29] of 1.04 µM. It also gave a TGI [29] of over 10.3 µM, a GI50 [30] of over 10.3 µM and a TGI [30] of over 10.3 µM. The GI50 [31] was 0.434 µM, the TGI [31] was over 10.3 µM and the GI50 [32] was over 10.3 µM. The TGI [32] was over 10.3 µM, the GI50 [33] was 3.18 µM and the TGI [33] was over 10.3 µM. It also gave a GI50 [34] of 1.83 µM, a TGI [34] of over 10.3 µM and a GI50 [35] of 4.77 µM. The TGI [35] was over 10.3 µM, the GI50 [36] was 0.301 µM and the TGI [36] was over 10.3 µM. For the same compound, the GI50 [37] was 1.77 µM, the TGI [37] was over 10.3 µM and the GI50 [38] was 4.54 µM. For the same compound, the TGI [38] was over 10.3 µM, the GI50 [39] was 3.63 µM and the TGI [39] was over 10.3 µM. For the same compound, the GI50 [40] was 2 µM, the TGI [40] was over 10.3 µM and the GI50 [41] was 0.388 µM. It also gave a TGI [41] of over 10.3 µM, a GI50 [42] of 1.25 µM and a TGI [42] of over 10.3 µM. The GI50 [43] was 1.18 µM, the TGI [43] was 8.81 µM and the GI50 [44] was 1.37 µM. It also gave a TGI [44] of over 10.3 µM, a GI50 [45] of 2.45 µM and a TGI [45] of over 10.3 µM. For the same compound, the GI50 [46] was 0.883 µM, the TGI [46] was over 10.3 µM and the GI50 [47] was 0.792 µM. The TGI [47] was over 10.3 µM, the GI50 [48] was 0.386 µM and the TGI [48] was over 10.3 µM. The GI50 [49] was 0.771 µM, the TGI [49] was 6.85 µM and the GI50 [50] was 0.42 µM. For the same compound, the TGI [50] was over 10.3 µM, the GI50 [51] was 5.54 µM and the TGI [51] was over 10.3 µM. It also gave a GI50 [52] of 4.31 µM, a TGI [52] of over 10.3 µM and a GI50 [53] of 1.09 µM. It also gave a TGI [53] of 8.11 µM, a GI50 [54] of 1.23 µM and a TGI [54] of over 10.3 µM. It also gave a GI50 [55] of 1.86 µM, a TGI [55] of over 10.3 µM and a GI50 [56] of 4.97 µM. For the same compound, the TGI [56] was over 10.3 µM, the GI50 [57] was 1.73 µM and the TGI [57] was 4.2 µM. For the same compound, the GI50 [58] was over 10.3 µM and the TGI [58] was over 10.3 µM.

`O=C(CSc1nc2ccccc2c(=O)n1-c1ccc(Cl)cc1)N/N=C/c1ccc(Oc2ccc(Cl)cc2)cc1` gave a GI50 [22] of 2.08 µM and a TGI [22] of 5.08 µM.
